Laboratory results from ChEMBL document CHEMBL2440027, “Further SAR studies on bicyclic basic merbarone analogues as potent antiproliferative agents” (Bioorg Med Chem, 2013).

Tests used:
Assay type in all cases: functional
[1] = system: NCI-H522; assay: Growth inhibition of human NCI-H522 cells after 48 hrs by sulforhodamine B assay; settings: NCI-H522, 48 h; for CC50: read-out: LC50 (the source's name)
[2] = system: MCF7; assay: Growth inhibition of human MCF7 cells after 48 hrs by sulforhodamine B assay; settings: MCF7, 48 h; for CC50: read-out: LC50 (the source's name)
[3] = system: HCT-116; assay: Growth inhibition of human HCT116 cells assessed as cell growth at 10 uM after 48 hrs by sulforhodamine B assay relative to control; settings: HCT-116, 48 h, read-out: Activity
[4] = system: SK-MEL-2; assay: Growth inhibition of human SK-MEL-2 cells after 48 hrs by sulforhodamine B assay; settings: SK-MEL-2, 48 h
[5] = system: RPMI-8226; assay: Growth inhibition of human RPMI8226 cells after 48 hrs by sulforhodamine B assay; settings: RPMI-8226, 48 h; for CC50: read-out: LC50 (the source's name)
[6] = system: TK-10; assay: Growth inhibition of human TK10 cells assessed as cell growth at 10 uM after 48 hrs by sulforhodamine B assay relative to control; settings: TK-10, 48 h, read-out: Activity
[7] = system: LOX IMVI; assay: Growth inhibition of human LOXIMVI cells after 48 hrs by sulforhodamine B assay
[8] = system: IGROV-1; assay: Growth inhibition of human IGROV1 cells assessed as cell growth at 10 uM after 48 hrs by sulforhodamine B assay relative to control; settings: IGROV-1, 48 h, read-out: Activity
[9] = system: 786-0; assay: Growth inhibition of human 786-0 cells after 48 hrs by sulforhodamine B assay; settings: 786-0, 48 h
[10] = system: SF-539; assay: Growth inhibition of human SF539 cells after 48 hrs by sulforhodamine B assay; settings: SF-539, 48 h; for CC50: read-out: LC50 (the source's name)
[11] = system: HT-29; assay: Growth inhibition of human HT-29 cells after 48 hrs by sulforhodamine B assay; settings: HT-29, 48 h; for CC50: read-out: LC50 (the source's name)
[12] = system: SK-MEL-5; assay: Growth inhibition of human SK-MEL-5 cells assessed as cell growth at 10 uM after 48 hrs by sulforhodamine B assay relative to control; settings: SK-MEL-5, 48 h, read-out: Activity
[13] = system: PC-3; assay: Growth inhibition of human PC3 cells assessed as cell growth at 10 uM after 48 hrs by sulforhodamine B assay relative to control; settings: PC-3, 48 h, read-out: Activity
[14] = system: HCT-15; assay: Growth inhibition of human HCT15 cells after 48 hrs by sulforhodamine B assay; settings: HCT-15, 48 h
[15] = system: IGROV-1; assay: Growth inhibition of human IGROV1 cells after 48 hrs by sulforhodamine B assay; settings: IGROV-1, 48 h; for CC50: read-out: LC50 (the source's name)
[16] = Growth inhibition of human EKVX cells after 48 hrs by sulforhodamine B assay; settings: for CC50: read-out: LC50 (the source's name)
[17] = system: OVCAR-5; assay: Growth inhibition of human OVCAR5 cells assessed as cell growth at 10 uM after 48 hrs by sulforhodamine B assay relative to control; settings: OVCAR-5, 48 h, read-out: Activity
[18] = system: NCI-H226; assay: Growth inhibition of human NCI-H226 cells assessed as cell growth at 10 uM after 48 hrs by sulforhodamine B assay relative to control; settings: NCI-H226, 48 h, read-out: Activity
[19] = system: UO-31; assay: Growth inhibition of human UO31 cells after 48 hrs by sulforhodamine B assay; settings: UO-31, 48 h
[20] = system: SF-295; assay: Growth inhibition of human SF295 cells assessed as cell growth at 10 uM after 48 hrs by sulforhodamine B assay relative to control; settings: SF-295, 48 h, read-out: Activity
[21] = system: COLO 205; assay: Growth inhibition of human COLO205 cells after 48 hrs by sulforhodamine B assay; settings: COLO 205, 48 h; for CC50: read-out: LC50 (the source's name)
[22] = system: ACHN; assay: Growth inhibition of human ACHN cells assessed as cell growth at 10 uM after 48 hrs by sulforhodamine B assay relative to control; settings: read-out: Activity
[23] = Growth inhibition of human Hs 578T cells assessed as cell growth at 10 uM after 48 hrs by sulforhodamine B assay relative to control; settings: read-out: Activity
[24] = system: MOLT-4; assay: Growth inhibition of human MOLT4 cells after 48 hrs by sulforhodamine B assay; settings: MOLT-4, 48 h
[25] = system: SN12C; assay: Growth inhibition of human SN12C cells after 48 hrs by sulforhodamine B assay; settings: for CC50: read-out: LC50 (the source's name)
[26] = system: MCF7; assay: Growth inhibition of human MCF7 cells assessed as cell growth at 10 uM after 48 hrs by sulforhodamine B assay relative to control; settings: MCF7, 48 h, read-out: Activity
[27] = system: NCI-H522; assay: Growth inhibition of human NCI-H522 cells assessed as cell growth at 10 uM after 48 hrs by sulforhodamine B assay relative to control; settings: NCI-H522, 48 h, read-out: Activity
[28] = system: RPMI-8226; assay: Growth inhibition of human RPMI8226 cells assessed as cell growth at 10 uM after 48 hrs by sulforhodamine B assay relative to control; settings: RPMI-8226, 48 h, read-out: Activity
[29] = system: UACC-62; assay: Growth inhibition of human UACC62 cells assessed as cell growth at 10 uM after 48 hrs by sulforhodamine B assay relative to control; settings: UACC-62, 48 h, read-out: Activity
[30] = system: NCI-H460; assay: Growth inhibition of human NCI-H460 cells after 48 hrs by sulforhodamine B assay; settings: NCI-H460, 48 h
[31] = system: SNB-19; assay: Growth inhibition of human SNB19 cells after 48 hrs by sulforhodamine B assay; settings: SNB-19, 48 h; for CC50: read-out: LC50 (the source's name)
[32] = system: HOP-62; assay: Growth inhibition of human HOP62 cells after 48 hrs by sulforhodamine B assay; settings: HOP-62, 48 h
[33] = system: HL-60(TB); assay: Growth inhibition of human HL-60(TB) cells assessed as cell growth at 10 uM after 48 hrs by sulforhodamine B assay relative to control; settings: HL-60, 48 h, read-out: Activity

`CN(C)CCNc1nc2c(c(=N)n1-c1ccccc1)c(=S)n(-c1ccccc1)c(=S)n2-c1ccccc1` gave a GI50 [1] of 2.1 µM, a TGI [1] of 5.4 µM and a CC50 [1] of 27.6 µM. The GI50 [2] was 2.2 µM, the TGI [2] was 10.9 µM and the CC50 [2] was 48.8 µM. For the same compound, the growth at 10 µM [3] was -22.1%, the GI50 [4] was 1.7 µM and the LC50 [4] was 6.7 µM. It also gave a TGI [4] of 3.4 µM, a GI50 [5] of 0.4 µM and a TGI [5] of 2.2 µM. It also gave a CC50 [5] of 7.3 µM, a growth at 10 µM [6] of 47.7% and a GI50 [7] of 1.4 µM. For the same compound, the LC50 (concentration killing 50% of cells) [7] was 5.3 µM, the TGI [7] was 2.7 µM and the growth at 10 µM [8] was 36.3%. It also gave a GI50 [9] of 1.4 µM, an LC50 [9] of 21.4 µM and a TGI [9] of 4.3 µM. It also gave a GI50 [10] of 1.8 µM, a TGI [10] of 3.5 µM and a CC50 [10] of 7 µM. It also gave a GI50 [11] of 1.4 µM, a TGI [11] of 3.4 µM and a CC50 [11] of 8.3 µM. For the same compound, the growth at 10 µM [12] was -98.8%, the growth at 10 µM [13] was 31% and the GI50 [14] was 1.4 µM. The LC50 [14] was 17.7 µM, the TGI [14] was 4.5 µM and the GI50 [15] was 8.1 µM. For the same compound, the TGI [15] was 23 µM, the CC50 [15] was 57.5 µM and the GI50 [16] was 12.1 µM. The TGI [16] was 32.2 µM, the CC50 [16] was 85.8 µM and the growth at 10 µM [17] was 63.1%. The growth at 10 µM [18] was 82.3%, the GI50 [19] was 1.6 µM and the LC50 [19] was 9.6 µM. For the same compound, the TGI [19] was 3.9 µM, the growth at 10 µM [20] was -61.5% and the GI50 [21] was 1.6 µM. The TGI [21] was 3.8 µM, the CC50 [21] was 9.1 µM and the growth at 10 µM [22] was 28.3%. For the same compound, the growth at 10 µM [23] was 12.3%, the GI50 [24] was 1.8 µM and the LC50 [24] was 17.2 µM. For the same compound, the TGI [24] was 4.7 µM, the GI50 [25] was 6.2 µM and the TGI [25] was 19.9 µM. It also gave a CC50 [25] of 48 µM, a growth at 10 µM [26] of 17.9% and a growth at 10 µM [27] of 3.16%. It also gave a growth at 10 µM [28] of -4.62%, a growth at 10 µM [29] of -90.3% and a GI50 [30] of 3.2 µM. It also gave an LC50 [30] of 61.2 µM, a TGI [30] of 11.8 µM and a GI50 [31] of 4.9 µM. It also gave a TGI [31] of 19 µM, a CC50 [31] of 50 µM and a GI50 [32] of 2.9 µM. It also gave an LC50 [32] of 55.6 µM, a TGI [32] of 10.1 µM and a growth at 10 µM [33] of 36.6%.
For `CCCCN(CCCC)CCCNc1nc2c(c(=N)n1-c1ccccc1)c(=S)n(-c1ccccc1)c(=S)n2-c1ccccc1`, the GI50 [1] was 0.2 µM, the TGI [1] was 1.3 µM and the CC50 [1] was 5.1 µM. The GI50 [2] was 0.3 µM, the TGI [2] was 1.3 µM and the CC50 [2] was 3.6 µM. For the same compound, the growth at 10 µM [3] was -25%, the GI50 [4] was 1.7 µM and the LC50 [4] was 6.9 µM. For the same compound, the TGI [4] was 3.5 µM, the GI50 [5] was 0.2 µM and the TGI [5] was 0.3 µM. It also gave a CC50 [5] of 0.7 µM, a growth at 10 µM [6] of -89.6% and a GI50 [7] of 0.2 µM. It also gave an LC50 (concentration killing 50% of cells) [7] of 0.6 µM, a TGI [7] of 0.3 µM and a growth at 10 µM [8] of -70.9%. It also gave a GI50 [9] of 0.2 µM, an LC50 [9] of 0.8 µM and a TGI [9] of 0.4 µM. For the same compound, the GI50 [10] was 1.2 µM, the TGI [10] was 2.7 µM and the CC50 [10] was 5.7 µM. It also gave a GI50 [11] of 0.2 µM, a TGI [11] of 0.5 µM and a CC50 [11] of 1.8 µM. For the same compound, the growth at 10 µM [12] was -100%, the growth at 10 µM [13] was -70.8% and the GI50 [14] was 0.3 µM. The LC50 [14] was 3.4 µM, the TGI [14] was 1.1 µM and the GI50 [15] was 1.9 µM. For the same compound, the TGI [15] was 3.8 µM, the CC50 [15] was 7.5 µM and the GI50 [16] was 0.4 µM. For the same compound, the TGI [16] was 1.9 µM, the CC50 [16] was 4.7 µM and the growth at 10 µM [17] was -60.2%. The growth at 10 µM [18] was -82.5%, the GI50 [19] was 0.2 µM and the LC50 [19] was 1.1 µM. The TGI [19] was 0.5 µM, the growth at 10 µM [20] was -100% and the GI50 [21] was 0.2 µM. It also gave a TGI [21] of 1.4 µM, a CC50 [21] of 6 µM and a growth at 10 µM [22] of -95.8%. The growth at 10 µM [23] was -64.6%, the GI50 [24] was 0.3 µM and the GI50 [25] was 1.2 µM. The TGI [25] was 2.4 µM, the CC50 [25] was 4.9 µM and the growth at 10 µM [26] was -88%. For the same compound, the growth at 10 µM [27] was -54.8%, the growth at 10 µM [28] was -53.4% and the growth at 10 µM [29] was -99.4%. For the same compound, the GI50 [30] was 0.4 µM, the LC50 [30] was 4 µM and the TGI [30] was 1.6 µM. It also gave a GI50 [31] of 1.2 µM, a TGI [31] of 2.7 µM and a CC50 [31] of 5.8 µM. It also gave a GI50 [32] of 1.2 µM, an LC50 [32] of 5.4 µM and a TGI [32] of 2.6 µM. For the same compound, the growth at 10 µM [33] was -74.8%.
